Assay [1] concerns the target T1, human INPP5K-cd (catalytic domain, 1-328) (Homo sapiens, UniProt Q9BT40).
T1 construct: human INPP5K catalytic domain (amino acids 1–328, INPP5K-cd, UniProt ID: Q9BT40); His6-MBP (MBP amino acids 1–387) (N, cleaved yes); TEV protease site ENLYFQG (N, cleaved yes); made in house; host or cells: E. coli Rosetta2 (DE3)
T1 sequence (Q9BT40 1-328): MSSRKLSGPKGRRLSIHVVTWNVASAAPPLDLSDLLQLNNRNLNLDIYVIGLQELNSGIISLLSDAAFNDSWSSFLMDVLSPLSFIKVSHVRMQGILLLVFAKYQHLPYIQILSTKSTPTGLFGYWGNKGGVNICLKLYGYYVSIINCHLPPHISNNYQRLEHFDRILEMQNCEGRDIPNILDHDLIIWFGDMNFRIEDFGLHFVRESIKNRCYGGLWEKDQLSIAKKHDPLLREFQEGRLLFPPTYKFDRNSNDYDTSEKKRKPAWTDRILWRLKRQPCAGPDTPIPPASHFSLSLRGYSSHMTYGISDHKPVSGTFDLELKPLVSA
Nature of the assay: Fluorescence polarization assay to evaluate phosphatase inhibition. The assay is classed as biochemical. To be noted: 20 µM diC8-PI(3,4,5)P3, 30 min. The source says:
(§1) The oligonucleotides used for vector construction were synthesized and purchased from GenScript Inc. (Tokyo, Japan). The cDNA encoding human INPP5K catalytic domain (amino acids 1–328, INPP5K-cd, UniProt ID: Q9BT40), which excluded the SKICH region from the full-length INPP5K sequence, was cloned downstream of MBP (amino acids 1–387) with an N-terminal His6-tag in the pET28 expression vector, a Novagen product (Merck KGaA, Darmstadt, Germany). Between the MBP and INPP5K-cd sequences, the Tobacco Etch Virus protease cleavage site (ENLYFQG) was inserted, such that the MBP–INPP5K-cd fusion protein could be digested by TEV protease during purification. Furthermore, using the Gibson Assembly method, the sequence encoding the amino acids 280–299 ([…]) of INPP5K cd was replaced by the sequence encoding AKANPSGFLLTQKD, which corresponds to the amino acids 283–296 of the rat INPP5K-cd (UniProt ID: Q9R0B6), resulting in the deletion of six amino acid residues (delta-INPP5K-cd). The truncated construct was designed using a comparison between a structure model and the structures of several IP5Pases[9]–[11]. […] The concentration of protein obtained was measured using the Bradford method, with bovine serum albumin as the standard. Fractions corresponding to each purification step were analyzed by SDS-PAGE, followed by staining of the gel with Coomassie brilliant blue R-250. […]

Assay [2] addresses T2, human delta-INPP5K-cd (loop-substituted catalytic domain) (Homo sapiens, UniProt Q9BT40, C280K/DEL284-290/G282N/G299D/H292G/INS279A/L297Q/R298K/S294L/S296T).
T2 construct: human INPP5K catalytic domain (amino acids 1–328, INPP5K-cd, UniProt ID: Q9BT40); His6-MBP (MBP amino acids 1–387) (N, cleaved yes); TEV protease site ENLYFQG (N, cleaved yes); made in house; host or cells: E. coli Rosetta2 (DE3)
The description is as above. The assay is classed as biochemical. To be noted: 20 µM diC8-PI(3,4,5)P3, 30 min.
Description: as §1

T2 sequence (Q9BT40 other isoform, or with tags, fused parts or gaps with the stated changes): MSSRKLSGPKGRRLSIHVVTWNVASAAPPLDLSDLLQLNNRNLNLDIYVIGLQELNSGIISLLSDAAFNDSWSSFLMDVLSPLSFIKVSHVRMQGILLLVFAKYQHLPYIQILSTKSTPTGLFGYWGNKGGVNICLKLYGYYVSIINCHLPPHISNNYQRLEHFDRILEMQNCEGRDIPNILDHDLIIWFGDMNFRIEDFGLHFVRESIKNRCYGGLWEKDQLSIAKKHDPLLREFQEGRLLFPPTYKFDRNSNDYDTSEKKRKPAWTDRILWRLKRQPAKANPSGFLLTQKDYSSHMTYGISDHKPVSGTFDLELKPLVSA

Take `CC(C)c1sc(NC(=O)c2ccccc2)c(C(=O)O)c1-c1ccccc1` [CPD-1]: the half-inhibitory concentration (IC50) (usually the concentration that inhibits the measured activity by half) worked out at 2300 nM in assay [1] and 2900 nM in assay [2].
